The text below walks through data of patent US11613538B2, “Method of inhibiting or reducing a viral infection” (PTC Therapeutics, Inc., priority 2009, dated 2023).

SMILES strings stand for the structures. ≈ marks a conversion by molar mass, not a printed value. Entries after “also recorded” stand apart in the source; their conditions may differ. Marks after values point to notes of the source that are not given here.

The test system of data set [1] is hypoxia-induced VEGF production in HeLa cells. Nature of the data set: cells. The class given is cell-based, human.
Data set [2] concerns human VEGF. Nature of the data set: Intra-tumor and plasma human VEGF in HT1080 xenograft mice (ELISA). Conditions: for Mean difference in human plasma VEGF (%) on Day 14 / Mean difference in human tumor VEGF (%) at Day 14: 14 days. In kind it is in vivo. The text has this: Human HT1080 cells (5×10^6 cells/mice) were implanted subcutaneously into male athymic nude mice. Human HT1080 cells constitutively produce human VEGF. Treatment with vehicle alone or Compound 1205 was initiated when the median tumor volume was approximately 311±88 mm^3. Table 3 and Table 4 provide the study design for assessing tumor and pathological plasma VEGF concentrations—each group in each study included eight (8) mice. When the tumors in vehicle-treated mice had reached the target size of about 1200 mm^3 for study #21 and about 1500 mm^3 for study #23, all mice in the study were sacrificed, and excised tumors were homogenized in buffer containing protease inhibitors. Both intra-tumor and plasma human VEGF levels were measured using an ELISA that recognizes human VEGF121 and VEGF165. Intra-tumor VEGF levels were normalized to the total tumor protein concentration and plasma VEGF levels were expressed in pg/mL. Because smaller tumors produce less VEGF per mg of tumor protein, intra-tumor VEGF levels were normalized to tumor size.
In general terms: In xenograft studies the graft and the host belong to different species.

Data set [3] concerns HT1080 xenografts. Nature of the data set: HT1080 xenograft tumor growth in male athymic nude mice. In kind it is in vivo. The text has this:
Experimental Design. HT1080 cells (5×10^6 cells/mouse) were implanted subcutaneously in male athymic nude mice. […] For comparison, Compound #10 was included in this study.

Data set [4] relates to HT1080 cells. Nature of the data set: Cell cycle analysis of HT1080 cells (propidium iodide, flow cytometry). The class given is cell-based, human. Conditions: 10 nM, 18 hours, normoxic conditions; in words. The protocol:
During the in vitro evaluation of Compound 1205 effects on VEGF expression, an examination of its actions on tumor cell cycling was performed. HT1080 cells were incubated under normoxic conditions (21% oxygen) for 18 hours with vehicle (0.5% DMSO) alone, or with 10 nM of Compound 1205. After treatment, cells were trypsinized, and stained with propidium iodide (PI) dye to measure DNA content of individual cells by flow cytometry. Output comprised histograms showing relative DNA content in 10,000 cells.
For orientation: Flow cytometry measures light scatter and fluorescence of single cells or particles in a stream.

For data set [5], the system named is murine kidney VEGF. Nature of the data set: Mouse kidney VEGF levels in tumor-bearing mice. The class given is in vivo. Conditions: 0.5 mg/kg (28 days) or 3 mg/kg (32 days); in words. The protocol:
After mouse tumors reached 1500 mm^3, mice were sacrificed and tissues were collected at the time of necropsy, homogenized, and analyzed. On average, mice treated with Compound 1205 at 0.5 mg/kg were on study for 28 days, and mice treated with Compound 1205 at 3 mg/kg were on study for 32 days.

A short description of data set [6]: Bioavailability in vivo of aqueous suspension. Conditions: in words. The text has this: It is anticipated that Compound 1205 can be clinically administered via a solid-dosage form. For all the studies outlined herein, Compound 1205 was lyophilized prior to formulation to minimize batch-to-batch variations in particle-size.
Data set [7] is described as follows: Solubility in water.
Data set [8] has as its system VEGF production in tumor cells. Nature of the data set: VEGF production in tumor cells (data not shown). The class given is cell-based. Conditions: in words. The text has this:
In addition to its effects on pathological VEGF production, a Compound provided herein provokes a late GI/early S-Phase cell cycle delay, i.e., between the late resting or pre-DNA synthesis phase, and the early DNA synthesis phase in those tumor cell lines in which VEGF generation is decreased by the Compound. See Section 8.3. […] The cell cycle delay and inhibition of pathological VEGF protein production occur in concert, linking these phenotypes in inflammation, pathological angiogenesis and tumor growth. […] Thus, these experiments indicate that the effects of the Compound on the tumor cell cycle occur in parallel with its actions on pathological VEGF production in tumors.

The subject of data set [9] is 786-O cells. Nature of the data set: 786-O renal cell carcinoma xenograft (VHL-negative), tumor volume. The class given is in vivo, mice. Conditions: for Median time for tumors to reach 1000 mm^3: Compound #10 10 mg/kg QD PO, time on study used if not reached; for Median time for tumors to reach 1000 mm^3 / Tumors smaller than those in vehicle-treated mice: sunitinib 75 mg/kg QD PO, rapamycin 15 mg/kg PO; for Tumors smaller than those in vehicle-treated mice: Day 57, Compound #10 10 mg/kg QD PO. The protocol: Both sunitinib and rapamycin are used clinically for treatment of renal cancer.
(§1) A total of 100 mice were injected, of which 60 were used in the study.
Groups were taken off study when the mean tumor volume in a group was 1300 mm^3 or more. Vehicle-treatment started on Day 0 and continued through Day 57. Compound #10-treatment started on Day 0 and continued through Day 88.
(§2) Tumors were measured twice per week using digital calipers.
The time to progression to reach a tumor volume 1000 mm^3 was calculated for each mouse. The median values were reported.

For data set [10], the system named is Caki-1 cells. Nature of the data set: Caki-1 renal cell carcinoma xenograft (VHL-positive), tumor volume. The class given is in vivo, mice. Conditions: for Median time for tumors to reach 1000 mm^3: Compound #10 10 mg/kg QD PO; for Median time for tumors to reach 1000 mm^3 / Tumors smaller than those in vehicle-treated mice: sunitinib 75 mg/kg QD PO, rapamycin 15 mg/kg PO; for Tumors smaller than those in vehicle-treated mice: Day 35, Compound #10 10 mg/kg QD PO. The protocol:
The Caki-1 cell line expresses the von Hippel-Lindau (VHL) protein which acts as a tumor suppressor by promoting the rapid degradation of HIF-1α (hypoxia-inducible factor 1α) under normoxia. Under hypoxic conditions, HIF-1α is stabilized and activated by the inability of VHL to act resulting in increased transcription of VEGF that is responsible for the high vascularization of RCC (see Turcotte et al, 2003, Zimmer et al, 2004).
as §1
Groups were taken off study when the mean tumor volume in a group was 1300 mm^3 or more. Vehicle-treatment started on Day 0 and continued through Day 35. Compound #10-treatment started on Day 0 and continued through Day 52.
as §2
[…] The median values were reported.

Data set [11] in a line: Caki-1 xenograft study: body weight and clinical observations. The class given is in vivo, mice. Conditions: Caki-1 study. From the text:
Body Weight: The mice were weighed once per week.

For data set [12] the following is noted: mouse, in vivo.
A short description of data set [13]: 786-O xenograft study: body weight and clinical observations. Conditions: 786-O study.

As to `O=C(Oc1ccc(Cl)cc1)N1CCc2c([nH]c3ccc(Cl)cc23)[C@@H]1c1ccc(OCC[C@H](O)CO)cc1` [Compound 1205], in data set [1], the “Inhibition of stress-induced VEGF production (FIG. 1)” value is given as “inhibit stress-induced VEGF production”. For the same molecule, in [1] (Homo sapiens, HeLa), the EC50 – broadly, the concentration at which the effect is half-maximal – was less than 8 nM. Further, the “Inhibition of plasma VEGF levels” value in data set [2] (0.5 or 3 mg/kg QD) is listed as “more than 95%”. The “Inhibition of tumor VEGF levels” value in [2] (0.5 or 3 mg/kg QD) was “more than 95%”. The “Mean difference in human plasma VEGF (%) on Day 14” value is given as 97%** in data set [2] (Study #21, 0.5 mg/kg QD); 99% in [2] (Study #21, 3 mg/kg QD); 100%** in data set [2] (Study #23, 1 mg/kg QD). The “Mean difference in human tumor VEGF (%) at Day 14” value was 95%** in data set [2] (Study #21, 0.5 mg/kg QD); 98%** in data set [2] (Study #21, 3 mg/kg QD); 95** % in data set [2] (Study #23, 1 mg/kg QD). Moreover, the “Volume normalized intra-tumor VEGF levels” value in data set [2] (treated groups vs vehicle, in words) is listed as “significantly reduced”. The “Lowest dose at which active” value in data set [3] (HT1080 xenograft) is given as not above 0.3 mg/kg. In addition, the “Mean difference in tumor growth rate at the Day that the vehicle-treated tumors taken off study (%)” value in data set [3] (Study 21, 0.5 mg/kg QD, Day 14) was 61%**; in [3] (Study 21, 3 mg/kg QD, Day 14), 80%**; in data set [3] (Study 22, 0.5 mg/kg QD, Day 11), 62%**; in data set [3] (Study 22, 3 mg/kg QD, Day 11) it was 75%**; in data set [3] (Study 23, 1 mg/kg QD, Day 14), 59%**; in [3] (Study 24a, 10 mg/kg QD, Day 11, Compound 1205 column), 76%**. Besides, the “Mean difference in tumor growth rate at the Day that the vehicle-treated tumors taken off study (%)” value in [3] (Study 24b, 0.3 mg/kg QD, Day 15) was 28%. The “Final mean terminal tumor size in treatment group (mm^3)” value in data set [3] (Study 21, 0.5 mg/kg QD, administered 14 days) is 580 mm^3; in data set [3] (Study 21, 3 mg/kg QD, administered 14 days), 379 mm^3; in data set [3] (Study 22, 0.5 mg/kg QD, administered 28 days) it was 1750 mm^3; in [3] (Study 22, 3 mg/kg QD, administered 32 days) it was 1840 mm^3; in data set [3] (Study 23, 1 mg/kg QD, administered 14 days), 710 mm^3; in data set [3] (Study 24a, 10 mg/kg QD, administered 30 days), 1400 mm^3. Besides, in [3] (Study 24b, 0.3 mg/kg QD, administered 16 days), the “Final mean terminal tumor size in treatment group (mm^3)” value turned out to be 1540 mm^3. In addition, the “Difference vs. vehicle in median number of days to reach 1000 mm^3,” value in [3] (Study 22, 0.5 mg/kg QD) stood at 11 days; in [3] (Study 24b, 0.3 mg/kg QD), 0.7 days. The “Difference vs. vehicle in median number of days to reach 1000 mm^3, (Days)” value is listed as 14** Days in [3] (Study 22, 3 mg/kg QD) and 14** Days in data set [3] (Study 24a, 10 mg/kg QD, Compound 1205 column). In [3] (study #24a, 10 mg/kg QD, in words), the “Growth of HT1080 tumors in vivo (FIG. 4)” value is “significantly delayed growth of HT1080 tumor cells in vivo”. Also, the “Cell cycle distribution (relative DNA content, FIG. 5)” value in data set [4] was “induced a redistribution of the cycling characteristics of the cell population”. For the same molecule, the “Murine kidney VEGF levels (FIG. 6)” value in data set [5] was “did not significantly decrease murine kidney VEGF levels”. Besides, in [6], the Bioavailability entry was “bioavailable in vivo”. Further, the solubility (in general, how much of the substance goes into solution per volume) in [7] is approximately 1 µg/mL (≈ 1.85 µM).
On to `NC(Cn1ccc(=O)c(O)c1)C(=O)O` (centres unmarked) [mimosine], for which the “Effect on VEGF production” value in data set [8] is listed as “does not reduce VEGF production”.
Consider `CO[C@H]1C[C@@H]2CC[C@@H](C)[C@@](O)(O2)C(=O)C(=O)N2CCCC[C@H]2C(=O)O[C@H]([C@H](C)C[C@@H]2CC[C@@H](O)[C@H](OC)C2)CC(=O)[C@H](C)/C=C(\C)[C@@H](O)[C@@H](OC)C(=O)[C@H](C)C[C@H](C)/C=C/C=C/C=C/1C` [rapamycin], for which the “Median time for tumors to reach 1000 mm^3” value is listed as 87 days in [9] and 43 days in data set [10]. Also, the figures for the “Tumors smaller than those in vehicle-treated mice” value in [9] and in [10] were 49% and 60%, respectively. Moreover, the “Tumor size (mean±SD)” value amounted to 1715±393 mm^3 in data set [9] (Day 93, 15 mg/kg PO) and 1689±1081 mm^3 in data set [10] (Day 63, 15 mg/kg PO). Besides, the Body weight loss was found to be 4.3% in [11] (Day 8), 5.8% in data set [11] (Day 14), 2.4% in [13] (Day 7) and 2.8% in data set [13] (Day 14). Further, the “Mice of the treatment group that had died” value in data set [11] (by Day 65) was 6 of the 10 mice. Further, the “Body weight change from initial body weight” value in [11] (in words) and in data set [13] (in words) was “transiently lost weight” in each case. Further, the “Individual mice found dead or sacrificed” value in data set [11] (in words) is “found dead on Day 14; also recorded: found dead on Day 62; also recorded: found dead on Day 63”. For the same molecule, the “Mice of the treatment group that had died or were sacrificed due to sickness” value in data set [12] was 1 of the 10 mice. In data set [13] (all mice, in words), the “Survival of treated mice” value is “survived until sacrificed”.
`CCN(CC)CCNC(=O)c1c(C)[nH]c(/C=C2\C(=O)Nc3ccc(F)cc32)c1C` [sunitinib]: the “Median time for tumors to reach 1000 mm^3” value is listed as 119 days in [9] and 66 days in [10]. For the same molecule, the “Tumors smaller than those in vehicle-treated mice” value in data set [9] is listed as 83%; in data set [10], 66%. Further, the “Tumor size (mean±SD)” value is listed as 709938 mm^3 in data set [9] (Day 119, 75 mg/kg QD, PO) and 1494±1150 mm^3 in data set [10] (Day 98, 75 mg/kg QD, PO). Further, the “Clinical observation: skin” value in [11] (from Day 8 onward, all mice, in words) is “yellow-tinged skin”; in data set [13] (from Day 7 onward, all mice, in words), “yellow-tinged skin”. Besides, the “Body weight change from initial body weight” value in [11] (in words) and in data set [13] (in words) was “transiently lost weight” in each case. Further, the “Individual mice found dead or sacrificed” value in [11] (in words) is reported as “sacrificed on Day 4; also recorded: found dead on Day 17; also recorded: found dead on Day 95”. For the same molecule, the “Mice of the treatment group that had died or were sacrificed due to sickness” value in [12] is 1 of the 10 mice. Moreover, the “Survival of treated mice” value in data set [13] (all mice, in words) is listed as “survived until sacrificed”.
